Experimental data: PMC9656319, “Pharmacokinetics and Tissue Distribution of Coumarins from Tagetes lucida in an LPS-Induced Neuroinflammation Model” (Plants, 2022)

Experiments:
[1] = Tissue distribution in the brain after oral hexanic extract of Tagetes lucida, healthy and LPS-administrated mice; assay type: in vivo, ICR mice; conditions: after the initial absorption process
Protocol: After blood sampling, the mice were sacrificed in a chamber with chloroform by an overdose of anesthesia. The brain, kidney, and spleen were quickly removed and rinsed with saline solution, fresh weight was recorded, and immediately placed on ice. Subsequently, the organs were freeze-dried, grounded, and weighted. The lyophilized organs were individually suspended in methanol in a 1:1 volume: dry weight ratio for 24 h, then sonicated for 5 min and centrifuged at 14,000 rpm for 7 min. The supernatants were recovered in clean tubes and stored at −70 °C until their use.
(§1) One hundred microliters of plasma and organs samples, spiked with calibration and QC concentration or samples from the pharmacokinetic study, were mixed with 300 µL of acetonitrile containing the IS at 10 µg/mL for protein precipitation, and vortexed for 3 min. Then, 200 µL of dichloromethane were added, for liquid–liquid extraction of the bioactive compounds, and vortexed for 5 min. The mixture was centrifuged at 14,000 rpm for 10 min, and the extracted organic layers were placed in new tubes, until completely dry at room temperature. For quantitative analysis, samples were resuspended in 100 µL of methanol, transferred to sampling vials, and injected into the chromatographic system, described below.
A pharmacokinetic study was carried out in sixty mice, divided in six subgroups, according to sample collection times. An acute inflammation process by the intraperitoneal (i.p.) administration of LPS at 2 mg/kg was induced in half of the mice per group, while the other half received an i.p. injection of saline solution. Ten min after the damage was induced, the mice were administered with an oral dose of 10 mg/kg of the bioactive fraction dissolved in a 1% Tween-20 aqueous solution. […]
To evaluate the distribution in the tissues, bioactive coumarins were quantified in the lyophilized organs, and concentrations were adjusted to the volumes of liquid obtained by the difference between the dry and fresh weights of each tissue to simulate a distribution approximation of the compounds by tissue system.

[2] = Stability of the analytes in spiked plasma, brain, kidney and spleen matrices (autosampler, long-term, freeze-thaw); assay type: physicochemical, mice; conditions: for Stability Autosampler RE (%): processed samples in autosampler vials 24 h room temperature; for Stability Freeze-Thaw RE (%): three cycles (−4 °C to 25 °C); for Stability Long-Term RE (%): −70 °C for 30 days
Protocol: The stability of the compounds obtained from each enriched matrices at the QC concentrations was evaluated under different conditions that covered the processing, handling, and storage phases that could be developed throughout the study.
Individual stock solutions of PE, SC, DF, HR, PU, and rutin (IS) were prepared separately in methanol (1 mg/mL) and stored at −4 °C until use. From the stocks, a working solution in methanol was prepared at a concentration of 200 µg/mL of each coumarin. Blank plasma or organs supernatant samples (80 µL) were spiked with 20 µL of serial dilutions of working solution to obtain calibration curves ranging between 0.156, 0.312, 0.625, 1.25, 2.5, 5, 10, 20, and 40 µg/mL of each coumarin. Quality control (QC) samples were prepared at three levels of 0.3 (low), 3 (medium), and 30 (high) µg/mL for each coumarin.
The stability of the analytes in plasma, brain, kidneys, and spleen was evaluated by the analyzed concentrations of QC subjected to three different conditions. Short-term stability was determined by analysis of samples processed in the autosampler vials at 24 h at room temperature. Long-term stability was tested on samples stored at −70 °C for 30 days. Freeze-thaw stability was determined after three cycles (−4 °C to 25 °C) on three consecutive days.

[3] = Pharmacokinetic study in plasma after oral hexanic extract of Tagetes lucida, healthy and LPS-damaged mice; assay type: in vivo, ICR mice; conditions: plasma, 10 mg/kg oral hexanic extract, mean ± SEM (n = 5); for Cmax / AUC(0-inf) / MRT / Tmax / half-life / AUC(0-t): ICR, mouse, po, 10 mg/kg; for Cmax: non-compartmental; for AUC(0-t): to 6 h
Protocol: The optimized HPLC-validated method for the quantification of coumarins present in the hexane extract of T. lucida was used to evaluate the concentration profiles over time in the plasma, brain, kidney, and spleen biological matrices after an oral administration of 10 mg/kg of the extract.
Blood samples were obtained from the retro-orbital sinus of mice and collected in heparinized tubes. Plasma was separated by centrifugation at 3500 rpm for 5 min and stored in new Eppendorf tubes at −70 °C, until further processing.
as §1
A pharmacokinetic study was carried out in sixty mice, divided in six subgroups, according to sample collection times. An acute inflammation process by the intraperitoneal (i.p.) administration of LPS at 2 mg/kg was induced in half of the mice per group, while the other half received an i.p. injection of saline solution. Ten min after the damage was induced, the mice were administered with an oral dose of 10 mg/kg of the bioactive fraction dissolved in a 1% Tween-20 aqueous solution. Blood and tissue samples were obtained and processed at 0, 0.25, 0.75, 1.5, 2, 4, and 6 h post-dosing, as indicated in the “Samples collection” and “Plasma and tissue samples processing” sections.
Pharmacokinetic parameters of PE, SC, DF, HR, and PU in plasma were calculated by PKSolver software.

COc1cc2ccc(=O)oc2cc1OCC=C(C)C [PE, 7-O-prenylscopoletin]
time at which the highest concentration in the brain tissue is reached [1]: 15 min | Stability Autosampler RE (%) ([2]; brain, nominal 0.3 µg/mL): -2.37% | Stability Freeze-Thaw RE (%) ([2]; brain, nominal 0.3 µg/mL): -1.15% | Stability Long-Term RE (%) ([2]; brain, nominal 0.3 µg/mL): -0.63% | Stability Autosampler RE (%) ([2]; brain, nominal 3.0 µg/mL): -0.34% | Stability Freeze-Thaw RE (%) ([2]; brain, nominal 3.0 µg/mL): -2.34% | Stability Long-Term RE (%) ([2]; brain, nominal 3.0 µg/mL): -3.44% | Stability Autosampler RE (%) ([2]; brain, nominal 30.0 µg/mL): 4.05% | Stability Freeze-Thaw RE (%) ([2]; brain, nominal 30.0 µg/mL): -1.25% | Stability Long-Term RE (%) ([2]; brain, nominal 30.0 µg/mL): -3.82% | Stability Autosampler RE (%) ([2]; kidney, nominal 0.3 µg/mL): 7.06% | Stability Freeze-Thaw RE (%) ([2]; kidney, nominal 0.3 µg/mL): 2.26% | Stability Long-Term RE (%) ([2]; kidney, nominal 0.3 µg/mL): 3.02% | Stability Autosampler RE (%) ([2]; kidney, nominal 3.0 µg/mL): 3.99% | Stability Freeze-Thaw RE (%) ([2]; kidney, nominal 3.0 µg/mL): 0.91% | Stability Long-Term RE (%) ([2]; kidney, nominal 3.0 µg/mL): 2.69% | Stability Autosampler RE (%) ([2]; kidney, nominal 30.0 µg/mL): 1.61% | Stability Freeze-Thaw RE (%) ([2]; kidney, nominal 30.0 µg/mL): 1.12% | Stability Long-Term RE (%) ([2]; kidney, nominal 30.0 µg/mL): 7.34% | Stability Autosampler RE (%) ([2]; plasma, nominal 0.3 µg/mL): -4.00% | Stability Freeze-Thaw RE (%) ([2]; plasma, nominal 0.3 µg/mL): 2.80% | Stability Long-Term RE (%) ([2]; plasma, nominal 0.3 µg/mL): -6.86% | Stability Autosampler RE (%) ([2]; plasma, nominal 3.0 µg/mL): 11.12% | Stability Freeze-Thaw RE (%) ([2]; plasma, nominal 3.0 µg/mL): -2.01% | Stability Long-Term RE (%) ([2]; plasma, nominal 3.0 µg/mL): -4.44% | Stability Autosampler RE (%) ([2]; plasma, nominal 30.0 µg/mL): 8.22% | Stability Freeze-Thaw RE (%) ([2]; plasma, nominal 30.0 µg/mL): -5.55% | Stability Long-Term RE (%) ([2]; plasma, nominal 30.0 µg/mL): -5.20% | Stability Autosampler RE (%) ([2]; spleen, nominal 0.3 µg/mL): -5.98% | Stability Freeze-Thaw RE (%) ([2]; spleen, nominal 0.3 µg/mL): 2.50% | Stability Long-Term RE (%) ([2]; spleen, nominal 0.3 µg/mL): 1.51% | Stability Autosampler RE (%) ([2]; spleen, nominal 3.0 µg/mL): -10.42% | Stability Freeze-Thaw RE (%) ([2]; spleen, nominal 3.0 µg/mL): 4.42% | Stability Long-Term RE (%) ([2]; spleen, nominal 3.0 µg/mL): 3.67% | Stability Autosampler RE (%) ([2]; spleen, nominal 30.0 µg/mL): -1.02% | Stability Freeze-Thaw RE (%) ([2]; spleen, nominal 30.0 µg/mL): 2.38% | Stability Long-Term RE (%) ([2]; spleen, nominal 30.0 µg/mL): 2.78% | Cmax ([3]; LPS-damaged ICR mice (LPS 2 mg/kg i.p.)): 1770 ± 310 ng/mL | AUC(0-inf) ([3]; LPS-damaged ICR mice): 6370 ± 1200 ng·h/mL | MRT ([3]; LPS-damaged ICR mice): 6.96 ± 1.92 h | Tmax ([3]; LPS-damaged ICR mice): 0.85 ± 0.28 h | half-life ([3]; LPS-damaged ICR mice): 4.48 ± 1.31 h | AUC(0-t) ([3]; LPS-damaged ICR mice): 3520 ± 100 ng·h/mL | AUC(0-inf) ([3]; healthy ICR mice): 1700 ± 310 ng·h/mL | MRT ([3]; healthy ICR mice): 3.04 ± 0.45 h | Tmax ([3]; healthy ICR mice): 1.55 ± 0.34 h | half-life ([3]; healthy ICR mice): 1.86 ± 0.55 h | Cmax ([3]; healthy ICR mice): 930 ± 290 ng/mL | AUC(0-t) ([3]; healthy ICR mice): 1560 ± 350 ng·h/mL | Cl/F ([3]; LPS-damaged ICR mice): 17.38 ± 2.25 (mg/kg)/(μg/mL)/h | Cl/F ([3]; healthy ICR mice): 65.83 ± 10.18 (mg/kg)/(μg/mL)/h
